In patent publication US6172112A, “Retinoids and use thereof” (priority 1999, dated 2001):
Entries after “also recorded” stand apart in the source; their conditions may differ. Like-named read-outs stand apart in the source and are kept apart here.

What was measured:
HL-60 cells = assay: retinoid induction of differentiation of HL-60 cells (NBT); type: cell-based; settings: Homo sapiens, HL-60, 96 h; 4-day induction of differentiation; read-out: ED50 (nM) HL-60
Protocol: (§1) Human leukemia cell line HL-60 and NB4 were used for measuring the ability of retinoids to induce terminal differentiation. Both cell lines are predominantly promyelocytes and are induced by retinoic acid to mature to cells with many characteristics of mature granulocytes. The induction of this differentiation is the basis for assaying one of the biological activities of retinoic acid analogues. For the differentiation assay, HL-60 or NB4 cells were grown in nutrient medium with fetal bovine serum as detailed by Breitman (15).
(§2) The percentage of cells that gained this marker was measured microscopically. The percentage of positive cells was then plotted as a function of the retinoid concentration to determine ED50 and ED30 values used in the formation of isoboles.

NB4 cells = assay: retinoid induction of differentiation of NB4 cells (NBT); type: cell-based, Human; settings: for EC50: NB-4, 96 h, read-out: ED50 (nM) NB4
Protocol: NB4 cells were obtained from Dr. Waxman after he received them from Dr. M. Lanotte. […] The cell were grown at 37° C. in a humidified atmosphere of 5% CO2 in air. Cell density was estimated on an electronic particle counter (Coulter electronic, Hialeah, Fla.) and cell viability with trypan bleu dye exclusion.
as §1, §2

RARs = assay: binding to RARs (subtypes stated together in text)
Protocol: (§3) For active retinoids, IC50 values were determined by titration with varying concentrations of UAB retinoids.

JMML cells = assay: inhibition of JMML spontaneous CFU-GM colony formation; settings: Homo sapiens
Protocol: Mononuclear cells were separated by density gradient centrifugation, washed, and frozen in aliquots. […] No growth factors or other exogenous stimuli were added to the cultures. UAB retinoids and retinoic acid isomers were dissolved in either 100% ethanol or DMSO. Appropriate dilutions were made, and controls using the respective ethanol or DMSO concentration were set up in parallel. Varying doses of retinoids were added only once, 24 hours after initiation of the soft agar assays, by pipetting the retinoid solution on top of the soft agar and allowing the solution to enter the agar and interact with the cells by diffusion. The cultures were incubated for 14 days at 37° C. in a humidified atmosphere with 5% CO2.

mouse skin papilloma [1] = settings: 45.9 nmol dose; ref (8); cited from earlier work
RARα [2] = biological target: T1, RARα (Homo sapiens, UniProt P10276); assay: cell-based
T1 sequence (P10276 1-462): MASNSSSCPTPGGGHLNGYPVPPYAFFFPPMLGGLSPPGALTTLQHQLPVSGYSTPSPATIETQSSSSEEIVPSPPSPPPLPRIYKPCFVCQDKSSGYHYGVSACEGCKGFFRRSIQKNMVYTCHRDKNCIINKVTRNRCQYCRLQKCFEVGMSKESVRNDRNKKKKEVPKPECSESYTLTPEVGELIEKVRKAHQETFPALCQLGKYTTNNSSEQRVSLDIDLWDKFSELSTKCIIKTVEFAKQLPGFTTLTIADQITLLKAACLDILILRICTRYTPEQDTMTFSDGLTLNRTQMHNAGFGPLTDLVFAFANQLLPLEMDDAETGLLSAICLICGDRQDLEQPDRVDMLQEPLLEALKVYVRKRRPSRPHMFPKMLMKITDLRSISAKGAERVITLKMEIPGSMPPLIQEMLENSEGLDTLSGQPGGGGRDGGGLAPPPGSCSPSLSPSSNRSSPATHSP
Protocol: (§4) These assays were performed in CV-1 cells with the RAR or RXR gene and the chloramphenicol acetyltransferase (CAT) reporter gene containing TREpal with a thymidine kinase promoter [(TREpal)2 -tk-CAT]. Twenty-four hours after transfection, cells were treated with a single dose of retinoid and the cell extracts were assayed for b-galactosidase and CAT activity. The antagonistic effects of UAB30 retinoids on the transcription of RAR-α were also determined in CV-1 cells. The methods are nearly identical to those used to perform transcriptional assays. These studies utilized the CAT reporter gene [(TREpal)2 -tk-CAT]. […] After 24 hours, cells were harvested and the transcriptional effects were measured in relative CAT activity, after correction with β-galactosidase activity for transfection efficiency. […] Experiments were performed in triplicate and the data were averaged.
(§5) UAB30 isomers were evaluated in assays which measures their functional activity within cells to induce RARα-, RARβ-, and RARγ-mediated transcriptional activity. CV-1 cells were transiently transfected with DNA plasmid from the appropriate RAR subtype and (TREpal)2 -tk-CAT (9, 19).

RARγ [3] = biological target: T2, RARγ (Homo sapiens, UniProt P13631); assay: RARγ-mediated transcriptional activation in CV-1 cells; type: cell-based
T2 sequence (P13631 1-454): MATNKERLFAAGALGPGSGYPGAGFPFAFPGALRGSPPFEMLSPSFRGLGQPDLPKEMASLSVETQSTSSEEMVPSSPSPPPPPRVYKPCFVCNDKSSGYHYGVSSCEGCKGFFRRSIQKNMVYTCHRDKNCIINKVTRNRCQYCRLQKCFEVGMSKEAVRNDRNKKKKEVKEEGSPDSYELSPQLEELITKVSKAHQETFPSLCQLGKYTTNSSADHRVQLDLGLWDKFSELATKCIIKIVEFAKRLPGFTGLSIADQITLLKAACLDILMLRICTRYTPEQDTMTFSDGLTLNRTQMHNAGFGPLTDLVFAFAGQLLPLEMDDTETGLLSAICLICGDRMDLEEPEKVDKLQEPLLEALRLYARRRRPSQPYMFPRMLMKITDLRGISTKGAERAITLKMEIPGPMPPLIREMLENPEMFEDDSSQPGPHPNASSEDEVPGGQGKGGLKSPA
Protocol: as §4, §5

RXRα [4] = biological target: T3, RXRα (Homo sapiens, UniProt P19793); assay: RXRα homodimer-mediated transcriptional activation in CV-1 cells; type: cell-based
Protocol: as §4

RARα/RXRα = biological target: T4, RARα/RXRα (Homo sapiens, UniProt P10276+P19793); assay: cell-based
T4 sequence (P10276 1-462): T1 sequence (P10276 1-462)
T4 sequence (P19793 1-462): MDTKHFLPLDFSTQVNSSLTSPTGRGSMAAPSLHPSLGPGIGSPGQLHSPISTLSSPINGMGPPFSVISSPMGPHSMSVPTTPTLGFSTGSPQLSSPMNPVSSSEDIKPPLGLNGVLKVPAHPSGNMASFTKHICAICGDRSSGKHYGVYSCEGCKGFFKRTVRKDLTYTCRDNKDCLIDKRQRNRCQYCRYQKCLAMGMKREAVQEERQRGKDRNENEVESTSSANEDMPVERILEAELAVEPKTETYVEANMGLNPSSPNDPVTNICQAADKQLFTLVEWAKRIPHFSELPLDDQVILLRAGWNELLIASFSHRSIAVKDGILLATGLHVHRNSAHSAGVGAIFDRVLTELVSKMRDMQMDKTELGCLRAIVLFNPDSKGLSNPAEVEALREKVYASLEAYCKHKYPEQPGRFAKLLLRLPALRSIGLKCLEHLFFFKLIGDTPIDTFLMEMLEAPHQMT
Protocol: as §4

RARα [5] = biological target: T1, RARα; settings: taken from Alam et al (9); cited from earlier work
RARβ [6] = biological target: T5, RARβ (Homo sapiens, UniProt P10826); settings: taken from Alam et al (9); cited from earlier work
T5 construct: expressed in transfected cells; host or cells: CV-1 cells
T5 sequence (P10826 1-455): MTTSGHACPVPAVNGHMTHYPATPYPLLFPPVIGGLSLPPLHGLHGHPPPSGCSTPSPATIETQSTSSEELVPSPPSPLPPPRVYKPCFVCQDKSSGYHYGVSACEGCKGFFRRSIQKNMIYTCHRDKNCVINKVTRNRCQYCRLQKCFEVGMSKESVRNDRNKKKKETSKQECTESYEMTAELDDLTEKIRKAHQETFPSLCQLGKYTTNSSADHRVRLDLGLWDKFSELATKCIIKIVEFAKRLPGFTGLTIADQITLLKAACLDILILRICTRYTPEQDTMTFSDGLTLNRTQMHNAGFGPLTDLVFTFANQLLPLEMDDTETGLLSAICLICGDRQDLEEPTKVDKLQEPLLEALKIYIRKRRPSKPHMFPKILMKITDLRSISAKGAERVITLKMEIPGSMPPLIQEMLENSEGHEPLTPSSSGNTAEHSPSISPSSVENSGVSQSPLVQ

RARγ [7] = biological target: T2, RARγ; settings: taken from Alam et al (9); cited from earlier work
RXRα [8] = biological target: T3, RXRα; settings: taken from Alam et al (9); cited from earlier work
mouse skin papilloma [9] = assay: mouse skin antipapilloma assay; settings: 45.9 nmol dose
Protocol: The mouse skin antipapilloma assay measured the ED50 values for retinoid tumor inhibition on the dorsal skin of mice. The inhibition of mouse skin papilloma by retinoids was performed according to a modification of the procedure developed by Verma and Boutwell (14) as reported previously by Muccio et al. (8).
The UAB30 retinoids were evaluated next for their activity in preventing the chemical induction of papillomas on mouse skin (14).

[10] = system: juvenile myelomonocytic leukemia (JMML); settings: children with JMML; cited from earlier work
RARα [11] = biological target: T1, RARα; assay: nuclear receptor radiolabeled competition binding, RARα
Protocol: as §3

RARβ [12] = biological target: T5, RARβ; assay: nuclear receptor radiolabeled competition binding, RARβ
Protocol: as §3

RARγ [13] = biological target: T2, RARγ; assay: nuclear receptor radiolabeled competition binding, RARγ
Protocol: as §3

RARβ [14] = biological target: T5, RARβ; assay: RARβ-mediated transcriptional activation in CV-1 cells; type: cell-based
Protocol: as §4, §5

[15] = read-out: normalized percent inhibition of CFU-GM colony growth, patient J83 (%)
[16] = read-out: normalized percent inhibition of CFU-GM colony growth, patient J84 (%)
[17] = read-out: normalized percent inhibition of CFU-GM colony growth, patient J83 (%), 10^-6 M
[18] = read-out: normalized percent inhibition of CFU-GM colony growth, patient J83 (%), 10^-7 M
[19] = read-out: normalized percent inhibition of CFU-GM colony growth, patient J84 (%), 10^-6 M

Compound `CCC1=C(C(C)C)/C(=C/C(C)=C\C=C\C(C)=C/C(=O)O)CCC1` [(9Z, 13Z)-UAB8] has an EC50 (HL-60 cells) of over 10000 nM and an EC50 (NB4 cells; Homo sapiens, 4-day induction of differentiation) of over 10000 nM.
With `CC(=C/C(=O)O)/C=C/C=C(C)/C=C1\CCCc2ccccc21` [(13Z)-UAB30, (2E,4E,6E,8E)-8-(3',4'-Dihydro-1'(2'H)-naphthalen-1'-ylidene)3,7-dimethyl-2,4,6-octatrienoic acid] the “binding to the RAR subtypes” value (RARs) was “ineffective binder”, the EC50 (HL-60 cells) was over 10000 nM and the EC50 (NB4 cells; Homo sapiens) was over 10000 nM. The inhibition at 0.1 µM (JMML cells; [15]) was 82%, the inhibition at 1 µM (JMML cells; [15]) was 88% and the inhibition at 0.01 µM (JMML cells; [16]) was 25%. The inhibition at 0.1 µM (JMML cells; [16]) was 72% and the inhibition at 1 µM (JMML cells; [16]) was 80%.
For `CC1=C(/C=C/C(C)=C\C=C\C(C)=C\C(=O)O)C(C)(C)CCC1` [(9Z)-RA, 9-cis-retinoic acid, reference compound], the “NB4 cell differentiation” value (NB4 cells; retinoid alone) is given as “comparable to that of ATRA”, the “prevention of papilloma (tumor) formation” value (shortened to “prevention of papilloma”) (mouse skin papilloma [1]) is given as 95% and the inhibition at 0.1 µM (JMML cells; read-out: normalized percent inhibition of CFU-GM colony growth, patient J43 (%), 10^-7 M) is given as 98%. The inhibition at 1 µM (JMML cells; [17]) was 82%, the inhibition at 0.1 µM (JMML cells; [18]) was 72% and the inhibition at 1 µM (JMML cells; [19]) was 95%.
For `CCC1=C(C(C)C)/C(=C/C(C)=C/C=C/C(C)=C\C(=O)O)CCC1` [(13Z)-UAB8], the EC50 (RARα [2]) was 0.051 µM, the EC50 (RARγ [3]) was 42 nM and the EC50 (RXRα [4]) was over 2 µM. For the same compound, the EC50 (RARα/RXRα) was 0.45 µM, the EC50 (HL-60 cells) was over 10000 nM and the IC50 (RARα [5]) was 900 nM. For the same compound, the IC50 (RARβ [6]) was 371 nM, the IC50 (RARγ [7]) was 708 nM and the IC50 (RXRα [8]) was over 1000 nM. It also gave an inhibition at 1 µM (JMML cells; read-out: normalized percent inhibition of CFU-GM colony growth, patient J43 (%)) of 80%, an inhibition at 0.01 µM (JMML cells; [16]) of 0% and an inhibition at 0.1 µM (JMML cells; [16]) of 18%.
For `CC(=C\C=C\C(C)=C\C(=O)O)/C=C1\CCCc2ccccc21` [(all-E)-UAB30, (2E,4E,6E,8E)-8-(3',4'-Dihydro-1'(2'H)-naphthalen-1'-ylidene)3,7-dimethyl-2,4,6-octatrienoic acid], the EC50 (HL-60 cells) was over 10000 nM, the EC50 (NB4 cells; Homo sapiens) was over 10000 nM and the “dose up to which not active in NB4 cell differentiation” value (NB4 cells; retinoid alone, 3 days) was over 40 mM. The “NB4 cell differentiation” value (NB4 cells; retinoid alone, listed as all-trans-UAB30) was “inactive in NB4 cell differentiation; also recorded: not induce differentiation of NB4 cells”, the “prevention of papilloma” value (mouse skin papilloma [9]) was 59% and the inhibition at 0.1 µM (JMML cells; [15]) was 68%. It also gave an inhibition at 1 µM (JMML cells; [15]) of 72%, an inhibition at 0.01 µM (JMML cells; [16]) of 28% and an inhibition at 0.1 µM (JMML cells; [16]) of 48%. It also gave an inhibition at 1 µM (JMML cells; [16]) of 57%.
For `CC1=C(/C=C/C(C)=C/C=C/C(C)=C\C(=O)O)C(C)(C)CCC1` [(13Z)-RA, reference compound], the “share of children in whom excessive myeloproliferation is controlled” value [10] is given as “up to 50%”, the inhibition at 1 µM (JMML cells; read-out: normalized percent inhibition of CFU-GM colony growth, patient J43 (%), 10^-6 M) is given as 109% and the inhibition at 1 µM (JMML cells; [17]) is given as 94%. It also gave an inhibition at 0.1 µM (JMML cells; [18]) of 86% and an inhibition at 1 µM (JMML cells; [19]) of 87%.
In the case of `CCC1=C(C(C)C)/C(=C/C(C)=C\C=C\C(C)=C\C(=O)O)CCC1` [(9Z)-UAB8], the IC50 (RARα [11]) is reported as over 1000 nM, the IC50 (RARβ [12]) is reported as over 1000 nM and the IC50 (RARγ [13]) is reported as over 1000 nM. The EC50 (RARα [2]) was over 1 µM, the EC50 (RARβ [14]) was over 2000 nM and the EC50 (RARγ [3]) was 190 nM. The EC50 (RARα/RXRα) was over 2 µM, the EC30 (NB4 cells; Homo sapiens, NB-4, 72 h, retinoid alone, 3 days, read-out: ED30 NB4 cell differentiation) was over 3000 µM and the “prevention of papilloma” value (mouse skin papilloma [9]) was 54%.
